# Tested on: SREBP-2
# Assay: Western blot, SREBP-2 protein level in HepG2
# Assay type: cell-based, human
# Conditions: 50 µM, 24 h
# Protocol: A total of 1.5 × 10^5 HepG2 cells/well (24-well plate) were treated with 50 μM of P5 and P5 analogs for 24 h. Immunoblotting experiments were performed using optimized protocol. See Supplementary Materials for further details.
# PBS for 1.5 h at RT. LDLR primary antibody solution (1:3000 in 5% BSA in PBS, 25 µL/well) was incubated O/N at +4 °C. Subsequently, the primary antibody solution was discarded and each sample was washed 5 times with 100 µL/well of PBS (each wash was for 5 min at RT). Goat anti-rabbit Ig-HRP secondary antibody solution (Santa Cruz) (1:6000 in 5% BSA in PBS, 50 µL/well), was added and incubated 1 h at RT. […] The reaction was stopped with 2 M H2SO4 and then the absorbance at 450 nm was measured using the microplate reader Synergy H1 (Winoo-ski, VT, USA). After the read, cells were stained by adding 1 X Janus Green stain, incubat-ing for 5 min at RT. […]
# Afterward 100 µL 0.5 M HCl for well were added and incubated for 10 min. After 10 sec-onds shaking, the OD at 595 nm was measured using the microplate reader Synergy H1 […]
# Fluorescent LDL Uptake. […] The degree of LDL uptake was measured using the Synergy H1 fluo-rescent plate reader (Winooski, VT, USA) (excitation and emission wavelengths 540 and 570 nm, respectively). Fluorescent LDL-uptake was finally assessed following optimized […]
sequence,measurement,value
"LILPKHSDAD [Peptide P5, natural peptide derived from a peptic lupin protein hydrolysate]","SREBP-2 protein level (words, P5)",upregulation of the SREBP-2 transcription factor level

# Reference: PMC8951016, “Computational Design and Biological Evaluation of Analogs of Lupin Peptide P5 Endowed with Dual PCSK9/HMG-CoAR Inhibiting Activity” (Pharmaceutics, 2022)
